# Test results taken from US9321773B2, “Compounds” (Respivert Ltd, priority 2009, dated 2016).
# pIC50: −log10 of the molar value. Like-named read-outs stand apart in the source and are kept apart here.
# How the values were obtained:
# recombinant PI3 kinase α = recombinant PI3 kinase α (Homo sapiens (Human), UniProt P42336); test: Enzyme Inhibition Assay (HTRF PI3K enzyme assay, TR-FRET); type: biochemical; settings: for pIC50: activity range, read-out: PI3 Kinase Inhibition IC50 values at stated Isozyme α
# In short: (§1)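 TR-FRET readout after 15-18 hr at RT with biotinylated PIP3, GST-tagged GRP1 PH domain and europium/APC fluorophores; product PIP3 displaces the tracer and lowers the signal. Beforehand, compound and PIP2 were reacted for 2 hr at RT with human recombinant PI3Kα, δ or γ.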
# recombinant PI3 kinase γ = recombinant PI3 kinase γ (Homo sapiens (Human), UniProt P48736); test: as above; type: biochemical; settings: for pIC50: activity range, read-out: PI3 Kinase Inhibition IC50 values at stated Isozyme γ
# In short: as §1
# recombinant PI3 kinase δ = recombinant PI3 kinase δ (Homo sapiens (Human), UniProt O00329); test: as above; type: biochemical; settings: for pIC50: activity range, read-out: PI3 Kinase Inhibition IC50 values at stated Isozyme δ
# In short: as §1
# [1] = system: H2O2 induced pAkt in D-U937 cells; test: PI3Kδ Cell Based Assay (H2O2 induced pAkt); settings: Homo sapiens
# In short: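 Read-out is the pAkt/total Akt signal ratio, measured with anti-pAkt and anti-pan-Akt antibodies after H2O2 stimulation. Cells were U937 monocytes given PMA (100 ng/mL) for 48 to 72 hr. IC50 values fitted from compound serial dilutions.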
# [2] = system: PMA-differentiated U937 cells; test: MTT Assay (cell viability); type: cell-based, Human; settings: percentage loss of cell viability; for Cell Viability MTT Assay in D-U937 cells at 4 hr: 4 hr in 5% FCS; for Cell Viability MTT Assay in D-U937 cells at 24 hr: 24 hr in 10% FCS
# In short: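 Differentiated U937 cells treated with compound for 4 hr (5% FCS) or 24 hr (10% FCS), then given MTT for 1 hr; formazan dissolved in DMSO and absorbance read at 550 nm. Viability loss expressed as % versus 0.5% DMSO vehicle.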
# [3] = Stereochemical analysis by chiral stationary phase HPLC (atropisomerism); type: physicochemical; settings: for atropisomerism by chiral stationary phase HPLC: chiral stationary phase HPLC (16 different conditions for the examples)
# Experimental: Each of these mobile phase are compatible with the column packings referred to above, providing sixteen different solvent and stationary phase permutations. Modifiers such as triethylamine (0.1%), formic acid (0.1%) may be added to improve the resolution
# Semi-preparative Chiral Stationary Phase LC-UV was performed on a Gilson preparative modular system using a Daicel Chiralpak AD semi-prep column ([…], 20×250 mm) and a flow rate of 18 mL/min eluting with an isocratic method over 20 min using […] heptane:IPA and 0.1% triethylamine employing an injection volume of 1.0 mL.
# [4] = dU937, activity range, D-U937 cells, read-out: Cellular Activity IC50 values (H2O2 induced pAkt D-U937 Cells)
# [5] = dU937, read-out: Cellular Activity IC50 values (H2O2 induced pAkt D-U937 Cells)
# recombinant PI3 kinase α, sequence (P42336 whole entry, the tested form may be a part): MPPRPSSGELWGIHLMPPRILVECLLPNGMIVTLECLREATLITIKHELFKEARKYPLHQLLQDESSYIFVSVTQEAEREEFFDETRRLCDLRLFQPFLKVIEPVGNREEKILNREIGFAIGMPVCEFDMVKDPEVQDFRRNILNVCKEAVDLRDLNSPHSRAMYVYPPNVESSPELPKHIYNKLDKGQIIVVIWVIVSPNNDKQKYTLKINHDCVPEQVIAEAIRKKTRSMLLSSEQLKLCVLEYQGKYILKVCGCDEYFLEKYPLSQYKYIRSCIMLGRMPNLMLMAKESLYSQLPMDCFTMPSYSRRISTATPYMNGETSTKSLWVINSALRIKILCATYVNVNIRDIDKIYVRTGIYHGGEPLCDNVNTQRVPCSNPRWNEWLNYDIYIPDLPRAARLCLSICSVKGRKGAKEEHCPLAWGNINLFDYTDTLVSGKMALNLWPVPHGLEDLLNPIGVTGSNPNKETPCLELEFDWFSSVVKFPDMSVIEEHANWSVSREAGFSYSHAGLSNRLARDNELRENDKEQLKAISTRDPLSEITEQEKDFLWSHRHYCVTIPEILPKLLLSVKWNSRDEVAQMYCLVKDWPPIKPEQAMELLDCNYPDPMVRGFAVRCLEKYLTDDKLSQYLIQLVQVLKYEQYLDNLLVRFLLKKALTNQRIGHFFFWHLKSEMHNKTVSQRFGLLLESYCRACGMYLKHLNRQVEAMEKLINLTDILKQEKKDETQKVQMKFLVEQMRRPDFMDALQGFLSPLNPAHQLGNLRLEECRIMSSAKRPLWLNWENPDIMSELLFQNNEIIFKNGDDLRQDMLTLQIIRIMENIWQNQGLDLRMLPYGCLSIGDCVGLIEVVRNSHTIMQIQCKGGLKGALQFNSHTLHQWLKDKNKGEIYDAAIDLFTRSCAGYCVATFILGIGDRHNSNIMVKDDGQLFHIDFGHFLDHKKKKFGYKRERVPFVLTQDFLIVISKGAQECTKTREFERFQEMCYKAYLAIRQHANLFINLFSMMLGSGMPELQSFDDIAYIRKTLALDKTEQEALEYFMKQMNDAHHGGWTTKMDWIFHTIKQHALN
# recombinant PI3 kinase α, sequence (P27986 whole entry partner, the tested form may be a part): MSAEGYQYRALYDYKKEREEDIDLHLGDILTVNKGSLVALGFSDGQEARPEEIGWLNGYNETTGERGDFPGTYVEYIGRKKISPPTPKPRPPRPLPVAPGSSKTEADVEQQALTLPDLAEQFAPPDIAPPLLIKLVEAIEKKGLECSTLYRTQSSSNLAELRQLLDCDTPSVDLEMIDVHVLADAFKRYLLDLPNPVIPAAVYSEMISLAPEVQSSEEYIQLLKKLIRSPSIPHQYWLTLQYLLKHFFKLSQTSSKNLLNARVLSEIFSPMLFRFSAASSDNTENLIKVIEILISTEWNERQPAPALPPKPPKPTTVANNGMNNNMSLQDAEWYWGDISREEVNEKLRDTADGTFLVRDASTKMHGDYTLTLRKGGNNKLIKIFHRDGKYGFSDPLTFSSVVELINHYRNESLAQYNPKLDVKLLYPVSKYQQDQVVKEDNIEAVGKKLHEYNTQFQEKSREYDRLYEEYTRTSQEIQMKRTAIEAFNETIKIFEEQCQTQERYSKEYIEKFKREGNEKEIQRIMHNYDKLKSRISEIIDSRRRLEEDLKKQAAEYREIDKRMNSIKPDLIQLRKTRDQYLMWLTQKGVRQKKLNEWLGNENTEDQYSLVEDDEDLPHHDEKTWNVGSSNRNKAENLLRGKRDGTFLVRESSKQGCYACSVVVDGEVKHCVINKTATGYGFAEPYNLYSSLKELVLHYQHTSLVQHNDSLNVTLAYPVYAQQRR
# recombinant PI3 kinase δ, sequence (O00329 whole entry): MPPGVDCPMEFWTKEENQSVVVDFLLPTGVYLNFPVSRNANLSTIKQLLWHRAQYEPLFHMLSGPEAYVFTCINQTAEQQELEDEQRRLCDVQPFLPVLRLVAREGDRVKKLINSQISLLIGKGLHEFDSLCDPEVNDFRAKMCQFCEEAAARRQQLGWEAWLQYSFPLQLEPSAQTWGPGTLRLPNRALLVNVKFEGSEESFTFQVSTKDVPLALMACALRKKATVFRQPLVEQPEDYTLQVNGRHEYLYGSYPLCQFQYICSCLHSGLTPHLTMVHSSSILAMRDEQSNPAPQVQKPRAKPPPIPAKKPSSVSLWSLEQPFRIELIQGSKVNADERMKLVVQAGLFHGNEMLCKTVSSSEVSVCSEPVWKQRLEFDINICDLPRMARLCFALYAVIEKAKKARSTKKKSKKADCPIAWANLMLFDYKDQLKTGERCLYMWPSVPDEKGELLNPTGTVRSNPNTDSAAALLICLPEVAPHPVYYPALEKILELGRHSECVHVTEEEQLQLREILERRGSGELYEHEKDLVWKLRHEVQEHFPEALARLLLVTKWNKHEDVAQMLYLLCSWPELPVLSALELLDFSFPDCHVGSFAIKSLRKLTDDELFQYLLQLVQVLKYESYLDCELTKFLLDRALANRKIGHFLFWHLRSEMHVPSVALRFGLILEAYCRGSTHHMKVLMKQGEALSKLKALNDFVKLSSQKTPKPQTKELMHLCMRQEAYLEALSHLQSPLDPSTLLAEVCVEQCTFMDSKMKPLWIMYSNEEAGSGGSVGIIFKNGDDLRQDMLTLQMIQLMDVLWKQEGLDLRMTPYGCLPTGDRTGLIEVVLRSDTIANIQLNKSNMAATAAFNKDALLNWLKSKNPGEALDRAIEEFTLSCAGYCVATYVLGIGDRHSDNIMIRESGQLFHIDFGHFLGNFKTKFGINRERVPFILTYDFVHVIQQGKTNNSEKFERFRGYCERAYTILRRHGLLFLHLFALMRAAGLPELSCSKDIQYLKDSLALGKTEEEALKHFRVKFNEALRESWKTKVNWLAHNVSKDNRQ
# recombinant PI3 kinase δ, sequence (P27986 whole entry partner): as the sequence (P27986 whole entry partner, the tested form may be a part) above
# recombinant PI3 kinase γ, sequence (P48736 whole entry): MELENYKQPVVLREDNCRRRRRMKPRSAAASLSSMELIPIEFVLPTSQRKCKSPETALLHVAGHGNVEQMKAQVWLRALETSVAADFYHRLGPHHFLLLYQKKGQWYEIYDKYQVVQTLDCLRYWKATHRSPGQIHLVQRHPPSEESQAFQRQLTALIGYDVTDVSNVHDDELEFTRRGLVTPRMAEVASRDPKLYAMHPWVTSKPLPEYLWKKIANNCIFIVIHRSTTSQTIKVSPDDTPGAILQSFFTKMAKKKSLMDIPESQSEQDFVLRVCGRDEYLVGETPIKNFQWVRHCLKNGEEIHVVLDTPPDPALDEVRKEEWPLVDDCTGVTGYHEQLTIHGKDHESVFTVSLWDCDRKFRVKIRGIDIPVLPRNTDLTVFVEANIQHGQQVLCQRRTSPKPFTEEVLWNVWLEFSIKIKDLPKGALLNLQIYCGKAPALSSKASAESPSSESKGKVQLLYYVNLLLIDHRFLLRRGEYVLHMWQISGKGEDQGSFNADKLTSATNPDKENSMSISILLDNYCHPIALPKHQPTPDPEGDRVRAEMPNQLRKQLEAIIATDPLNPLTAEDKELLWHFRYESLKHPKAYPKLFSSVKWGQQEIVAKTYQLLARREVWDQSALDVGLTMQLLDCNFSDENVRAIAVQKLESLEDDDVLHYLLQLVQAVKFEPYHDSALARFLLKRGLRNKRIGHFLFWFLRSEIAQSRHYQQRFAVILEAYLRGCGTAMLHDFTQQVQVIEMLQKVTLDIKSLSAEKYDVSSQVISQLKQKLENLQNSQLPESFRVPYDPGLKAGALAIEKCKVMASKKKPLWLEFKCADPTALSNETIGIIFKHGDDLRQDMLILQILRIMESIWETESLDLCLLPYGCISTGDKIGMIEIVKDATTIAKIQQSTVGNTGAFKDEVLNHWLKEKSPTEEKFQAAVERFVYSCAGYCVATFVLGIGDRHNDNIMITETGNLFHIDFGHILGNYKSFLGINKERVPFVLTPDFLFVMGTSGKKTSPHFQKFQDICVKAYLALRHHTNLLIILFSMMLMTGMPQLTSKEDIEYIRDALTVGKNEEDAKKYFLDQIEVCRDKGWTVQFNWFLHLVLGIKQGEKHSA
Compound,pIC50 (recombinant PI3 kinase α),IC50 (recombinant PI3 kinase α; read-out: PI3 Kinase Inhibition IC50 values at stated Isozyme (nM) α) [nM],pIC50 (recombinant PI3 kinase γ),IC50 (recombinant PI3 kinase γ; read-out: PI3 Kinase Inhibition IC50 values at stated Isozyme (nM) γ) [nM],pIC50 (recombinant PI3 kinase δ),IC50 (recombinant PI3 kinase δ; read-out: PI3 Kinase Inhibition IC50 values at stated Isozyme (nM) δ) [nM],"pIC50 [1, 4]","IC50 ([1]; dU937, read-out: Cellular Activity IC50 values (H2O2 induced pAkt (nM) D-U937 Cells)) [nM]","interconversion of separated atropisomers ([3]; ambient and elevated temperatures, over several days)",Cell Viability MTT Assay in D-U937 cells at 4 hr [2],Cell Viability MTT Assay in D-U937 cells at 24 hr [2],atropisomerism by chiral stationary phase HPLC [3],"pIC50 [1, 5]"
"C#Cc1cccc2nc(Cn3nc(-c4cccc(O)c4)c4c(N)ncnc43)n(Cc3cccc(OC)c3)c(=O)c12 [Example 15, 2-((4-Amino-3-(3-hydroxyphenyl)-1H-pyrazolo[3,4-d]pyrimidin-1-yl)methyl)-5-ethynyl-3-(3-methoxybenzyl)quinazolin-4(3H)-one]",< 6.00,1970,6.00 to 7.30,289,> 7.30,4,> 8.00,0.57,–,− (− <30%),− (− <30%),no evidence for atropisomerism was observed,–
"C#Cc1cccc2nc(Cn3nc(-c4cccc(O)c4)c4c(N)ncnc43)n(Cc3ccc(C(F)(F)F)cc3)c(=O)c12 [Example 21, 2-((4-Amino-3-(3-hydroxyphenyl)-1H-pyrazolo[3,4-d]pyrimidin-1-yl)methyl)-5-ethynyl-3-(4-(trifluoromethyl)benzyl)quinazolin-4(3H)-one]",6.00 to 7.30,–,6.00 to 7.30,–,> 7.30,–,> 8.00,–,–,− (− <30%),− (− <30%),no evidence for atropisomerism was observed,–
"C#Cc1cccc2nc(Cn3nc(-c4ccc(O)cc4)c4c(N)ncnc43)n(Cc3cc(C)on3)c(=O)c12 [Example 32, 2-((4-Amino-3-(4-hydroxyphenyl)-1H-pyrazolo[3,4-d]pyrimidin-1-yl)methyl)-5-ethynyl-3-((5-methylisoxazol-3-yl)methyl)quinazolin-4(3H)-one]",6.00 to 7.30,–,6.00 to 7.30,–,> 7.30,–,> 8.00,–,–,− (− <30%),− (− <30%),no evidence for atropisomerism was observed,–
"C#Cc1cccc2nc(Cn3nc(-c4ccc(O)cc4)c4c(N)ncnc43)n(Cc3ccccc3Cl)c(=O)c12 [Example 9, 2-((4-Amino-3-(4-hydroxyphenyl)-1H-pyrazolo[3,4-d]pyrimidin-1-yl)methyl)-3-(2-chlorobenzyl)-5-ethynyl quinazolin-4(3H)-one]",6.00 to 7.30,–,6.00 to 7.30,–,> 7.30,–,–,–,–,− (− <30%),− (− <30%),no evidence for atropisomerism was observed,> 8.00
"Nc1ncnc2c1c(-c1ccc(O)cc1)nn2Cc1nc2cccc(C#CCC3CCCC3)c2c(=O)n1Cc1ccccc1Cl [Example 39, 2-((4-Amino-3-(4-hydroxyphenyl)-1H-pyrazolo[3,4-d]pyrimidin-1-yl)methyl)-3-(2-chlorobenzyl)-5-(3-cyclopentylprop-1-ynyl)quinazolin-4(3H)-one]",> 7.30,–,6.00 to 7.30,–,> 7.30,–,> 8.00,–,–,− (− <30%),− (− <30%),–,–
"C#Cc1cccc2nc(Cn3nc(-c4ccc(O)c(F)c4)c4c(N)ncnc43)n(Cc3ccccc3Cl)c(=O)c12 [Example 36, 2-((4-Amino-3-(3-fluoro-4-hydroxyphenyl)-1H-pyrazolo[3,4-d]pyrimidin-1-yl)methyl)-3-(2-chlorobenzyl)-5-ethynylquinazolin-4(3H)-one]",6.00 to 7.30,–,< 6.00,–,> 7.30,–,> 8.00,–,–,− (− <30%),− (− <30%),–,–
"N#Cc1cccc(Cn2c(Cn3nc(-c4cccc(O)c4)c4c(N)ncnc43)nc3cccc(C#CCOCCOCCO)c3c2=O)c1 [Example 6, 3-((2-((4-Amino-3-(3-hydroxyphenyl)-1H-pyrazolo[3,4-d]pyrimidin-1-yl)methyl)-5-(3-(2-(2-hydroxyethoxy)ethoxy)prop-1-yn-1-yl)-4-oxoquinazolin-3(4H)-yl)methyl)benzonitrile]",6.00 to 7.30,–,6.00 to 7.30,–,> 7.30,–,> 8.00,–,–,− (− <30%),− (− <30%),–,–
"Nc1ncnc2c1c(-c1cccc(O)c1)nn2Cc1nc2cccc(C#CCOCCN3CCOCC3)c2c(=O)n1Cc1ccccc1Cl [Example 8, 2-((4-Amino-3-(3-hydroxyphenyl)-1H-pyrazolo[3,4-d]pyrimidin-1-yl)methyl)-3-(2-chlorobenzyl)-5-(3-(2-morpholinoethoxy)prop-1-ynyl)quinazolin-4(3H)-one]",6.00 to 7.30,–,6.00 to 7.30,–,> 7.30,–,–,–,–,− (− <30%),− (− <30%),–,> 8.00

# Second part, led by results:
pIC50 (recombinant PI3 kinase α),IC50 (recombinant PI3 kinase α; read-out: PI3 Kinase Inhibition IC50 values at stated Isozyme (nM) α) [nM],pIC50 (recombinant PI3 kinase γ),IC50 (recombinant PI3 kinase γ; read-out: PI3 Kinase Inhibition IC50 values at stated Isozyme (nM) γ) [nM],pIC50 (recombinant PI3 kinase δ),IC50 (recombinant PI3 kinase δ; read-out: PI3 Kinase Inhibition IC50 values at stated Isozyme (nM) δ) [nM],"pIC50 [1, 4]","IC50 ([1]; dU937, read-out: Cellular Activity IC50 values (H2O2 induced pAkt (nM) D-U937 Cells)) [nM]","interconversion of separated atropisomers ([3]; ambient and elevated temperatures, over several days)",Compound,Cell Viability MTT Assay in D-U937 cells at 4 hr [2],Cell Viability MTT Assay in D-U937 cells at 24 hr [2],atropisomerism by chiral stationary phase HPLC [3],"pIC50 [1, 5]"
–,–,–,–,–,–,–,–,no detectable signs of interconversion,"Cc1ccccc1-n1c(Cn2nc(-c3cccc(O)c3)c3c(N)ncnc32)nc2cccc(C)c2c1=O [PIK294, reference compound]",–,–,1:1 mixture of enantiomeric atropisomers,–
6.00 to 7.30,–,> 7.30,–,> 7.30,–,> 8.00,–,–,"CN(C)CCNC(=O)CCCC#Cc1cccc2nc(Cn3nc(-c4ccc(O)cc4)c4c(N)ncnc43)n(Cc3ccccc3Cl)c(=O)c12 [Example 78, 6-(2-((4-Amino-3-(4-hydroxyphenyl)-1H-pyrazolo[3,4-d]pyrimidin-1-yl)methyl)-3-(2-chlorobenzyl)-4-oxo-3,4-dihydroquinazolin-5-yl)-N-(2-(dimethylamino)ethyl) hex-5-ynamide]",− (− <30%),− (− <30%),–,–
> 7.30,–,> 7.30,–,> 7.30,–,> 8.00,–,–,Nc1ncnc2c1c(-c1cccc(O)c1)nn2Cc1nc2cccc(C#CCCC(=O)N3CCOCC3)c2c(=O)n1Cc1ccccc1Cl [Example 56],− (− <30%),− (− <30%),–,–
6.00 to 7.30,–,> 7.30,–,> 7.30,–,> 8.00,–,–,"CN(C)C1CCN(C(=O)CCCC#Cc2cccc3nc(Cn4nc(-c5ccc(O)cc5)c5c(N)ncnc54)n(Cc4ccccc4Cl)c(=O)c23)C1 (stereo not shown) [Example 91, 2-((4-Amino-3-(4-hydroxyphenyl)-1H-pyrazolo[3,4-d]pyrimidin-1-yl)methyl)-3-(2-chlorobenzyl)-5-(6-(3-(dimethylamino)pyrrolidin-1-yl)-6-oxohex-1-ynyl) quinazolin-4(3H)-one]",− (− <30%),− (− <30%),–,–
6.00 to 7.30,–,6.00 to 7.30,–,> 7.30,–,> 8.00,–,–,"C#Cc1cccc2nc(Cn3nc(-c4ccc(O)cc4)c4c(N)ncnc43)n(Cc3ccc(OC)cc3)c(=O)c12 [Example 46, 2-((4-Amino-3-(4-hydroxyphenyl)-1H-pyrazolo[3,4-d]pyrimidin-1-yl)methyl)-5-ethynyl-3-(4-methoxybenzyl)quinazolin-4(3H)-one]",− (− <30%),− (− <30%),–,–
6.00 to 7.30,–,6.00 to 7.30,–,> 7.30,–,> 8.00,–,–,"CN(C)C1CCN(C(=O)CCCC#Cc2cccc3nc(Cn4nc(-c5ccc(O)cc5)c5c(N)ncnc54)n(Cc4ccccc4Cl)c(=O)c23)CC1 [Example 81, 2-((4-Amino-3-(4-hydroxyphenyl)-1H-pyrazolo[3,4-d]pyrimidin-1-yl)methyl)-3-(2-chlorobenzyl)-5-(6-(4-(dimethylamino)piperidin-1-yl)-6-oxohex-1-ynyl) quinazolin-4(3H)-one]",− (− <30%),− (− <30%),–,–
6.00 to 7.30,–,6.00 to 7.30,–,> 7.30,–,> 8.00,–,–,"Nc1ncnc2c1c(-c1ccc(O)cc1)nn2Cc1nc2cccc(C#CCCCO)c2c(=O)n1Cc1ccccc1Cl [Example 41, 2-((4-Amino-3-(4-hydroxyphenyl)-1H-pyrazolo[3,4-d]pyrimidin-1-yl)methyl)-3-(2-chlorobenzyl)-5-(5-hydroxypent-1-ynyl)quinazolin-4(3H)-one]",− (− <30%),− (− <30%),–,–
